# Experimental data as given in the supplement of paper PMC11061612.
# Columns and labels:
# Test in all cases: combination Emax (second highest fraction inhibited in the dose matrix, 72 h); higher = more inhibition; extreme values may be limits of the assay
# [1] = tested on: CAL-85-1 (Breast Carcinoma)
# Method in brief: (§1)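 Bliss excess equals the observed combination effect minus the expected value EA + EB − EA·EB, where EA and EB are the effects of each agent alone. Combination Emax is the second-highest inhibition within the matrix. Inhibition was scaled from CellTiter-Glo 2.0 luminescence, with 0 set by vehicle wells and 1 by blank wells, after 72 hours of two-drug dosing of cells plated in 1536-well plates.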
# [2] = tested on: DK-MG (Glioblastoma)
# Method in brief: as §1
# [3] = tested on: Daudi (Burkitt's Lymphoma)
# Method in brief: as §1
# [4] = tested on: IGROV-1 (Ovarian Carcinoma)
# Method in brief: as §1
# [5] = tested on: JJN-3 (Plasma Cell Myeloma)
# Method in brief: as §1
# [6] = tested on: JURL-MK1 (Chronic Myelogenous Leukemia)
# Method in brief: as §1
# [7] = tested on: KNS-62 (Squamous Cell Lung Carcinoma)
# Method in brief: as §1
# [8] = tested on: L-363 (Plasma Cell Myeloma)
# Method in brief: as §1
# [9] = tested on: NCI-H1944 (Lung Adenocarcinoma)
# Method in brief: as §1
# [10] = tested on: NCI-H2023 (Non-Small Cell Lung Carcinoma)
# Method in brief: as §1
# [11] = tested on: NCI-H2452 (Mesothelioma)
# Method in brief: as §1
# [12] = tested on: NCI-H835 (Other Solid Carcinomas)
# Method in brief: as §1
# [13] = tested on: NTERA-2-cl-D1 (Other Solid Carcinomas)
# Method in brief: as §1
# [14] = tested on: OVKATE (Ovarian Carcinoma)
# Method in brief: as §1
# [15] = tested on: RS4-11 (B-Lymphoblastic Leukemia)
# Method in brief: as §1
# [16] = tested on: SCC90 (Head and Neck Carcinoma)
# Method in brief: as §1
# [17] = tested on: SK-MEL-24 (Melanoma)
# Method in brief: as §1
# [18] = tested on: SK-N-DZ (Neuroblastoma)
# Method in brief: as §1
# [19] = tested on: TK (B-Cell Non-Hodgkin's Lymphoma)
# Method in brief: as §1
# [20] = tested on: TOV-21G (Ovarian Carcinoma)
# Method in brief: as §1
smiles,measurement,setting,value
"COc1cccc(OCCCN)c1-c1cc(Nc2cnc(C#N)cn2)n[nH]1 [Prexasertib] + CCc1c2c(nc3ccc(O)cc13)-c1cc3c(c(=O)n1C2)COC(=O)[C@]3(O)CC [SN-38] (first compound max 1 µM, 7x7, partner max 0.3 µM)",combination Emax,[1],0.85
same,combination Emax,[2],0.295
same,combination Emax,[3],0.987
same,combination Emax,[4],0.863
same,combination Emax,[5],0.981
same,combination Emax,[6],1
same,combination Emax,[7],0.874
same,combination Emax,[8],1
same,combination Emax,[9],0.857
same,combination Emax,[10],0.783
same,combination Emax,[11],0.895
same,combination Emax,[12],0.632
same,combination Emax,[13],0.981
same,combination Emax,[14],0.258
same,combination Emax,[15],1
same,combination Emax,[16],0.952
same,combination Emax,[17],0.837
same,combination Emax,[18],1
same,combination Emax,[19],1
same,combination Emax,[20],0.852
"NC1(C(=O)N[C@@H](CCO)c2ccc(Cl)cc2)CCN(c2ncnc3[nH]ccc23)CC1 [Capivasertib] + C[C@@H]1COCCN1C2=NC(=NC(=C2)C3(CC3)[S@](=N)(=O)C)C4=C5C=CNC5=NC=C4 [AZD6738] (first compound max 10 µM, 7x7, partner max 10 µM)",combination Emax,[1],0.47
same,combination Emax,[2],0.494
same,combination Emax,[3],0.709
same,combination Emax,[4],0.865
same,combination Emax,[5],0.603
same,combination Emax,[6],1
same,combination Emax,[7],0.738
same,combination Emax,[8],0.824
same,combination Emax,[9],0.974
same,combination Emax,[10],0.655
same,combination Emax,[11],0.72
same,combination Emax,[12],0.456
same,combination Emax,[13],0.477
same,combination Emax,[14],0.265
same,combination Emax,[15],0.967
same,combination Emax,[16],0.804
same,combination Emax,[17],0.688
same,combination Emax,[18],0.983
same,combination Emax,[19],0.871
same,combination Emax,[20],0.851
"Cn1cnc2c(F)c(Nc3ccc(Br)cc3Cl)c(C(=O)NOCCO)cc21 [Selumetinib] + C[C@@H]1COCCN1C2=NC(=NC(=C2)C3(CC3)[S@](=N)(=O)C)C4=C5C=CNC5=NC=C4 [AZD6738] (first compound max 10 µM, 7x7, partner max 10 µM)",combination Emax,[1],0.559
same,combination Emax,[2],0.417
same,combination Emax,[3],0.672
same,combination Emax,[4],0.818
same,combination Emax,[5],0.677
same,combination Emax,[6],1
same,combination Emax,[7],0.524
same,combination Emax,[8],0.801
same,combination Emax,[9],0.879
same,combination Emax,[10],0.477
same,combination Emax,[11],0.363
same,combination Emax,[12],0.19
same,combination Emax,[13],0.351
same,combination Emax,[14],0.199
same,combination Emax,[15],0.953
same,combination Emax,[16],0.764
same,combination Emax,[17],0.56
same,combination Emax,[18],0.986
same,combination Emax,[19],0.909
same,combination Emax,[20],0.809
"CS(=O)(=O)CCNCc1ccc(-c2ccc3ncnc(Nc4ccc(OCc5cccc(F)c5)c(Cl)c4)c3c2)o1 [Lapatinib] + NC1(c2ccc(-c3nc4ccn5c(=O)[nH]nc5c4cc3-c3ccccc3)cc2)CCC1 [MK-2206] (first compound max 10 µM, 7x7, partner max 10 µM)",combination Emax,[1],0.9
same,combination Emax,[5],0.899
same,combination Emax,[7],0.721
same,combination Emax,[8],0.912
same,combination Emax,[9],0.941
same,combination Emax,[10],0.637
same,combination Emax,[11],0.554
same,combination Emax,[12],0.868
same,combination Emax,[13],0.911
same,combination Emax,[14],0.537
same,combination Emax,[16],0.962
same,combination Emax,[17],0.949
"C[C@@H](Nc1cc(F)cc(F)c1)c1cc(C(=O)N(C)C)cc2c(=O)cc(N3CCOCC3)oc12 [AZD8186] + CC(=O)c1c(C)c2cnc(Nc3ccc(N4CCNCC4)cn3)nc2n(C2CCCC2)c1=O [Palbociclib] (first compound max 10 µM, 7x7, partner max 10 µM)",combination Emax,[1],0.164
same,combination Emax,[7],0.358
same,combination Emax,[8],0.737
same,combination Emax,[10],0.399
same,combination Emax,[11],0.417
same,combination Emax,[12],0.802
same,combination Emax,[13],0.343
same,combination Emax,[14],0.264
same,combination Emax,[17],0.449
"C[C@@H](Nc1cc(F)cc(F)c1)c1cc(C(=O)N(C)C)cc2c(=O)cc(N3CCOCC3)oc12 [AZD8186] + C1CN(CCC1(C(=O)N[C@@H](CCO)C2=CC=C(C=C2)Cl)N)C3=NC=NC4=C3C=CN4 [AZD5363] (first compound max 10 µM, 7x7, partner max 10 µM)",combination Emax,[1],0.214
same,combination Emax,[7],0.533
same,combination Emax,[8],0.318
same,combination Emax,[10],0.333
same,combination Emax,[11],0.336
same,combination Emax,[12],0.525
same,combination Emax,[13],0.348
same,combination Emax,[14],0.252
same,combination Emax,[17],0.508
"O=C(c1cc(Cc2n[nH]c(=O)c3ccccc23)ccc1F)N1CCN(C(=O)C2CC2)CC1 [Olaparib] + Cc1c2c(nn1C)CSCc1cc(n(C)n1)CSc1cc(c3ccccc3c1)OCCCc1c(C(=O)O)n(C)c3c-2c(Cl)ccc13 [AZD5991] (first compound max 10 µM, 7x7, partner max 1 µM)",combination Emax,[1],0.168
same,combination Emax,[7],0.128
same,combination Emax,[8],0.989
same,combination Emax,[10],0.12
same,combination Emax,[11],0.165
same,combination Emax,[12],0.149
same,combination Emax,[13],0.531
same,combination Emax,[14],0.0781
same,combination Emax,[17],0.0746
"Cc1c2c(nn1C)CSCc1cc(n(C)n1)CSc1cc(c3ccccc3c1)OCCCc1c(C(=O)O)n(C)c3c-2c(Cl)ccc13 [AZD5991] + Nc1ccn([C@@H]2O[C@H](CO)[C@@H](O)C2(F)F)c(=O)n1 [Gemcitabine] (first compound max 1 µM, 7x7, partner max 0.3 µM)",combination Emax,[1],0.558
same,combination Emax,[7],0.413
same,combination Emax,[8],0.999
same,combination Emax,[10],0.612
same,combination Emax,[11],0.319
same,combination Emax,[12],0.42
same,combination Emax,[13],0.536
same,combination Emax,[14],0.165
same,combination Emax,[17],0.758
"CCc1c2c(nc3ccc(O)cc13)-c1cc3c(c(=O)n1C2)COC(=O)[C@]3(O)CC [SN-38] + O=C(c1cc(Cc2n[nH]c(=O)c3ccccc23)ccc1F)N1CCN(C(=O)C2CC2)CC1 [Olaparib] (first compound max 0.3 µM, 7x7, partner max 10 µM)",combination Emax,[1],0.702
same,combination Emax,[2],0.259
same,combination Emax,[3],0.979
same,combination Emax,[5],0.688
same,combination Emax,[6],1
same,combination Emax,[7],0.905
same,combination Emax,[8],0.421
same,combination Emax,[9],0.634
same,combination Emax,[10],0.857
same,combination Emax,[11],0.316
same,combination Emax,[12],0.268
same,combination Emax,[13],1
same,combination Emax,[14],0.224
same,combination Emax,[16],0.632
same,combination Emax,[17],0.775
"O=C(c1cc(Cc2n[nH]c(=O)c3ccccc23)ccc1F)N1CCN(C(=O)C2CC2)CC1 [Olaparib] + CN(CC[C@H](CSC1=CC=CC=C1)NC2=C(C=C(C=C2)S(=O)(=O)NC(=O)C3=CC=C(C=C3)N4CCC(CC4)[C@H](C5=CC=CC=C5C6=CC=C(C=C6)Cl)O)S(=O)(=O)C(F)(F)F)CCO [AZD4320] (first compound max 10 µM, 7x7, partner max 1 µM)",combination Emax,[1],0.342
same,combination Emax,[7],0.153
same,combination Emax,[8],0.403
same,combination Emax,[10],0.165
same,combination Emax,[11],0.182
same,combination Emax,[12],0.951
same,combination Emax,[13],0.689
same,combination Emax,[14],0.168
same,combination Emax,[17],0.177
"Cc1c2c(nn1C)CSCc1cc(n(C)n1)CSc1cc(c3ccccc3c1)OCCCc1c(C(=O)O)n(C)c3c-2c(Cl)ccc13 [AZD5991] + CC(=O)O[C@H]1C(=O)[C@@]2(C)[C@H]([C@H](OC(=O)c3ccccc3)[C@]3(O)C[C@H](OC(=O)[C@H](O)[C@@H](NC(=O)c4ccccc4)c4ccccc4)C(C)=C1C3(C)C)[C@]1(OC(C)=O)CO[C@@H]1C[C@@H]2O [Paclitaxel] (first compound max 1 µM, 7x7, partner max 3 µM)",combination Emax,[1],0.806
same,combination Emax,[7],0.6
same,combination Emax,[8],1
same,combination Emax,[10],0.537
same,combination Emax,[11],0.838
same,combination Emax,[12],0.453
same,combination Emax,[13],0.614
same,combination Emax,[14],0.217
same,combination Emax,[17],0.692
"C[C@@H](Oc1cc(-c2cnn(C3CCNCC3)c2)cnc1N)c1c(Cl)ccc(F)c1Cl [Crizotinib] + CC1=C(C(=CC=C1)Cl)NC(=O)C2=CN=C(S2)NC3=CC(=NC(=N3)C)N4CCN(CC4)CCO [Dasatinib] (first compound max 10 µM, 7x7, partner max 2 µM)",combination Emax,[1],0.778
same,combination Emax,[7],0.302
same,combination Emax,[8],0.632
same,combination Emax,[10],0.607
same,combination Emax,[11],0.744
same,combination Emax,[12],0.854
same,combination Emax,[13],0.956
same,combination Emax,[14],0.572
same,combination Emax,[17],0.871
"O=C(c1cc(Cc2n[nH]c(=O)c3ccccc23)ccc1F)N1CCN(C(=O)C2CC2)CC1 [Olaparib] + COc1nnc2ccc(N3CCC(c4ccc(OCCN5CCN(C)C(=O)[C@H]5C)cc4)CC3)nn12 [AZD5153] (first compound max 10 µM, 7x7, partner max 1 µM)",combination Emax,[1],0.613
same,combination Emax,[7],0.436
same,combination Emax,[8],0.468
same,combination Emax,[10],0.344
same,combination Emax,[11],0.407
same,combination Emax,[12],0.403
same,combination Emax,[13],0.649
same,combination Emax,[14],0.264
same,combination Emax,[17],0.419
"C[C@@H]1COCCN1c1cc(C2([S@](C)(=N)=O)CC2)nc(-c2ccnc3[nH]ccc23)n1 [AZD6738] + Nc1ccn([C@@H]2O[C@H](CO)[C@@H](O)C2(F)F)c(=O)n1 [Gemcitabine] (first compound max 10 µM, 7x7, partner max 0.3 µM)",combination Emax,[1],0.726
same,combination Emax,[7],0.665
same,combination Emax,[8],0.941
same,combination Emax,[10],0.684
same,combination Emax,[11],0.763
same,combination Emax,[12],0.446
same,combination Emax,[13],0.592
same,combination Emax,[14],0.345
same,combination Emax,[17],0.841
"O=C(c1cc(Cc2n[nH]c(=O)c3ccccc23)ccc1F)N1CCN(C(=O)C2CC2)CC1 [Olaparib] + CC1(C)CCC(CN2CCN(c3ccc(C(=O)NS(=O)(=O)c4ccc(NCC5CCOCC5)c([N+](=O)[O-])c4)c(Oc4cnc5[nH]ccc5c4)c3)CC2)=C(c2ccc(Cl)cc2)C1 [Venetoclax] (first compound max 10 µM, 7x7, partner max 1 µM)",combination Emax,[1],0.239
same,combination Emax,[7],0.147
same,combination Emax,[8],0.305
same,combination Emax,[10],0.134
same,combination Emax,[11],0.143
same,combination Emax,[12],0.169
same,combination Emax,[13],0.383
same,combination Emax,[14],0.122
same,combination Emax,[17],0.0984
